In patent US20130274127A1, “GENE EXPRESSION MARKERS FOR PREDICTION OF RESPONSE TO PHOSPHOINOSITIDE 3-KINASE INHIBITORS” (GENOMIC HEALTH, INC., priority 2012, published 2013):

Legend:
OVCAR-4 tumor cell line = experiment: siRNA knockdown and cell viability assay; type: cell-based, human
[1] = tested on: MDA-MB-231 tumor cell line; experiment: siRNA knockdown and cell viability assay; type: cell-based, human

Cn1c(=O)n(-c2ccc(C(C)(C)C#N)cc2)c2c3cc(-c4cnc5ccccc5c4)ccc3ncc21 [NVP-BEZ235]
Sensitivity to NVP-BEZ235 (cell viability) upon loss of OGT expression (OVCAR-4 tumor cell line; OGT siRNA + 10 nM NVP-BEZ235): no effect | Sensitivity of cell line to NVP-BEZ235 (OVCAR-4 tumor cell line; data not shown): highly NVP-BEZ235-resistant | Sensitivity to NVP-BEZ235 (cell viability) upon loss of OGT expression ([1]; OGT siRNA + 10 nM NVP-BEZ235): increased sensitivity | Sensitivity of cell line to NVP-BEZ235 ([1]; data not shown): resistant
